Values quoted from earlier work in US20260284015A1, “DOSAGE REGIME OF CRINECERFONT FOR TREATING CONGENITAL ADRENAL HYPERPLASIA” (Neurocrine Biosciences, Inc., priority 2023, published 2026).

Settings: glucocorticoid dose conversion factor relative to hydrocortisone

Compound | Hydrocortisone dose equivalent conversion [×]
C[C@@H]1C[C@H]2[C@@H]3CCC4=CC(=O)C=C[C@]4(C)[C@@]3(F)[C@@H](O)C[C@]2(C)[C@@]1(O)C(=O)CO [Dexamethasone] | 60
C[C@]12C=CC(=O)C=C1CC[C@@H]1[C@@H]2[C@@H](O)C[C@@]2(C)[C@H]1CC[C@]2(O)C(=O)CO [Prednisolone] | 4
C[C@H]1C[C@@H]2[C@H]([C@@H](O)C[C@@]3(C)[C@H]2CC[C@]3(O)C(=O)CO)[C@@]2(C)C=CC(=O)C=C12 [Methylprednisolone] | 4
